Data reported in article PMC9728921, “Characterization of a KDM5 small molecule inhibitor with antiviral activity against hepatitis B virus” (PLOS ONE, 2022).

What was measured:
KDM4B = molecular target: T1, KDM4B (Homo sapiens, UniProt O94953); experiment: KDM4B enzymatic assay (AlphaLISA); format: biochemical
T1 sequence (O94953 1-1096): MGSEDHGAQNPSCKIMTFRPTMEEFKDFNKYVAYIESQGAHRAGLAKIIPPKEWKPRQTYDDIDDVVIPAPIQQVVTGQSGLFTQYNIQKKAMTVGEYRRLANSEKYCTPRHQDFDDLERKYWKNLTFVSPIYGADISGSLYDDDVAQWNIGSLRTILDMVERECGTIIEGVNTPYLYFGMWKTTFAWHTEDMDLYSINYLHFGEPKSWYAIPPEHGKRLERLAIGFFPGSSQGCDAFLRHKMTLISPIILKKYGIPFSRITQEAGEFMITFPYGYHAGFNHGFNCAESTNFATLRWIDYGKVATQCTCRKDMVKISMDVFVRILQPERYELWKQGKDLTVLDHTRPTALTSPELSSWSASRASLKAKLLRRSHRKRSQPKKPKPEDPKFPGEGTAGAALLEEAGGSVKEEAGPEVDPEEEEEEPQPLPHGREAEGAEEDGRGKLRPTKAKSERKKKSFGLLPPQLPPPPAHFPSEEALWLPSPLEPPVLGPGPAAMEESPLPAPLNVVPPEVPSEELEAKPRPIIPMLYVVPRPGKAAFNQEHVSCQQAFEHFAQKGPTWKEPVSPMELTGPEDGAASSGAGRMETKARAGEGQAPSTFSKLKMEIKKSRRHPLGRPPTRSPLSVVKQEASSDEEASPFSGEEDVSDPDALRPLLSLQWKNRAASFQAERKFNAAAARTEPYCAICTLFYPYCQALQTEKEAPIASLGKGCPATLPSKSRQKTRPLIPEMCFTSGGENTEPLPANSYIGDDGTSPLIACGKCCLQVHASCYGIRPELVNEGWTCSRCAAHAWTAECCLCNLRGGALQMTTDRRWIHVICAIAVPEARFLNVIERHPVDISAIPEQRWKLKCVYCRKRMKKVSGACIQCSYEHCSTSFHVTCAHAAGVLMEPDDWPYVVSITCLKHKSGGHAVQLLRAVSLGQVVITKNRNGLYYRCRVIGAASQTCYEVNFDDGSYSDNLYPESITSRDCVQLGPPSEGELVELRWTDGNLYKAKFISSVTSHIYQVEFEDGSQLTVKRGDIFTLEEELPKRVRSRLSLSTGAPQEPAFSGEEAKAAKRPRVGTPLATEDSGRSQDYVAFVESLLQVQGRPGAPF
Procedure: (§1) The following assay protocol was used for all histone demethylases tested except KDM1A, KDM5A, B, and D, which are described below. Compounds were serially diluted into a 384-well Alpha plate as a DMSO solution and mixed with 5 μL reaction buffer (buffer A) containing 50 mM HEPES (pH 7.0), 0.1% BSA, and 0.003% Tween-20. The enzyme of interest was pre-incubated with 15 μM of Fe^2+ for 10 min (except 30 min for KDM2B) in reaction buffer A. 5 μL of the enzyme mixture was added to each of the compound-containing wells and incubated for 10 min. The reaction was started by addition of a 5 μL mixture containing 300 nM peptide substrate, 75 μM L-ascorbic acid, and 30 μM α-ketoglutarate in buffer A. This final 15 μL of reaction mixture was incubated for 20 min for KDM5B and 1 hour for the other KDM enzymes. The reaction was quenched with 10 μL of diluted AlphaLISA Acceptor beads (1:400) in Epigenetics Buffer and incubated for 60 min. The Donor beads were diluted 1:400 into Epigenetics Buffer in the dark and 10 μL of this was added to each well and incubated for another 60 min in the dark. The assay plates were read on an Enspire plate reader (PerkinElmer) using a standard AlphaLISA program.
(§2) Data was analyzed using GraphPad Prism 6.0 (La Jolla, CA). […] IC50 values were calculated as an average of at least two independent experiments.

KDM4C = KDM4C (Homo sapiens, UniProt Q9H3R0); experiment: biochemical
Procedure: as §1, §2

HMT or HDAC enzymes = experiment: Panel of HMT and HDAC enzymes; format: biochemical; conditions: no measurable inhibitory activity; read-out: IC50 against any of the HMT or HDAC enzymes tested
Procedure: Histone methyltransferase assays were performed in 96-well half-area optiplates (PerkinElmer) at room temperature. All concentrations are final unless noted otherwise. Compounds were serially diluted in DMSO and the final DMSO concentration was 1%. […] The plate was sealed, mixed on a Titramax plate shaker at 1200 rpm for 30 sec, and incubated at room temperature for 60 min. […] The plate was sealed, mixed as previously noted, incubated overnight, and read on a TopCount plate reader (PerkinElmer). The HDAC-1 histone deacetylase assay was tested using the FLUOR DE LYS platform ([…]). Inhibition of SIRT-1 histone deacetylase was tested with the AlphaLISA detection system. All assays were conducted at room temperature with a final DMSO concentration of 1%. […] After a 60-minute incubation, the reaction was quenched with 10 μL AlphaLISA H3K4-specific Acceptor beads (1:200) in Epigenetics Buffer, and the reaction mixture was incubated for 60 min. The Donor beads were diluted 1:200 into Epigenetics Buffer in the dark and 10 μL of this mixture was added to each well and incubated for another 60 min in the dark. The assay plates were read on an Enspire plate reader (PerkinElmer) using a standard AlphaLISA program. […] Data was analyzed using GraphPad Prism 6.0 (La Jolla, CA). […] IC50 values were calculated as an average of at least two independent experiments.

[1] = Liver to plasma AUC ratio, rat; format: in vivo, Sprague Dawley rats; conditions: male, Sprague Dawley, liver and plasma, po, 1 mg/kg, read-out: GS-080 liver to plasma AUC ratio
Procedure: Rats and monkeys were dosed by oral gavage once with 1 mg/kg or 2.5 mg/kg, respectively. The rat study included a vehicle control group (water). Serial venous blood samples were taken at 0, 0.25, 0.5, 1, 2, 4, 6, 8, 12, and 24 hours post dose from each animal and collected into vacutainer tubes containing potassium oxalate/sodium fluoride (Thermo Fisher; BD367925) as the anti-coagulant and blood was centrifuged for plasma isolation. […] For monkey, liver samples were taken by biopsy at pre-dose, 1, 4, 24, 48, and 72 hours post dose (n = 2 per time point). Rat and monkey livers were weighed and immediately flash frozen in liquid nitrogen.
500 μL of cold HPLC grade water was added to each monkey liver biopsy sample and rat liver samples were diluted 3-fold with cold HPLC grade water. Diluted liver samples were homogenized between 1 and 3 minutes. 50 μL of plasma samples and homogenized liver samples were quenched with 200 μL of 0.05% formic acid in acetonitrile. […] An Agilent 1200 series binary pump (Santa Clara, CA; G1312A) was used for elution and separation of compounds with a Hypersil Gold C18 HPLC column (Thermo Fisher; 50 x 3.0 mm, 5 μm) over 6.75 minutes with 99–3% gradient of Mobile Phase A (1% acetonitrile in 2.5 mM ammonium formate aqueous solution pH 2.6) and 1–97% gradient Mobile Phase B (90% acetonitrile in aqueous 10 mM ammonium formate pH 6.8).

Sequence of KDM4C (Q9H3R0 whole entry): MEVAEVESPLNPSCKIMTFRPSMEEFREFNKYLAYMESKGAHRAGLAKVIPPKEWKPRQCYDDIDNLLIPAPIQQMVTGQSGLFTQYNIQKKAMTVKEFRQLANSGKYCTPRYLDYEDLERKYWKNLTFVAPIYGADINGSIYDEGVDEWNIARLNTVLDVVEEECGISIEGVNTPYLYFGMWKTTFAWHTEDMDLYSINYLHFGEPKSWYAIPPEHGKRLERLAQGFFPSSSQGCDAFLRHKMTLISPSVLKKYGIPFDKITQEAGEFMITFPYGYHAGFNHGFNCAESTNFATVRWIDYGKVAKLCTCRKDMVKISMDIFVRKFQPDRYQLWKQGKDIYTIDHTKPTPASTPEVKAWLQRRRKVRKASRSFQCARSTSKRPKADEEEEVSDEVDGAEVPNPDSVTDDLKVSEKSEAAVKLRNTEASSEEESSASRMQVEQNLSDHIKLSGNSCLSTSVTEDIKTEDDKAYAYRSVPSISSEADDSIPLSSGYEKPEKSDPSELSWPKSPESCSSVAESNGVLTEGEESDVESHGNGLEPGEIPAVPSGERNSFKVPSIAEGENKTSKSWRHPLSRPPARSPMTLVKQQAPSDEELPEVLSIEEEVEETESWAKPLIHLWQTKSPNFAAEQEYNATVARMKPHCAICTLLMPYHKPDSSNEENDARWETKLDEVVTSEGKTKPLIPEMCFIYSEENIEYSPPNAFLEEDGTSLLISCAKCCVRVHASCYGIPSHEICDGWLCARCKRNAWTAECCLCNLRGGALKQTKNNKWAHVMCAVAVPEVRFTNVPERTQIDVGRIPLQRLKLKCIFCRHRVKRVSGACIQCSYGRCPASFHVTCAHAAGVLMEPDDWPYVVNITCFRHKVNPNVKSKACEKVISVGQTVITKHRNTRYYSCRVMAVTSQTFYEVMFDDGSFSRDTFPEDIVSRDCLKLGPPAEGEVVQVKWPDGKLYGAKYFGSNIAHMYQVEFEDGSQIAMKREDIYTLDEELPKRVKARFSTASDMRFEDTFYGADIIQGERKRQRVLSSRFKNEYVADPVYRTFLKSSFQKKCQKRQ

- Fold Selectivity Compared to KDM5A (KDM4B; IC50 of KDM4B over KDM5A): 13 fold
- IC50 (KDM4B; enzyme concentration 1 nM): 4.7 nM
- IC50 (KDM4C): 4.8 nM
- Fold Selectivity Compared to KDM5A (KDM4C; IC50 of KDM4C over KDM5A): 13 fold
- IC50 (HMT or HDAC enzymes): > 100000 nM
- Kp [1]: 44
SMILES: CCN(CCN(C)C)C(=O)CNCc1cc(C(=O)O)ccn1 [GS-080]
